Assay results published in patent US7405181B2, “Bio-fertilizer composition for promoting growth or orchid plants and application” (National Taiwan University, priority 2005, dated 2008).

What was measured:
Phalaenopsis amabilis = assay: Flowering rates with bio-fertilizer and plant growth substance; format: in vivo; settings: room temperature
Protocol: (§1) Phalaenopsis amabili and Doritaenopsis casablanca Joy×Phalaenopsis taida Pinlong are treated with either bio-fertilizer composition Mb or plant growth regulators Gibberellic Acid (GA3), or both. The flowering rates are observed after incubation.

[1] = system: Doritaenopsis casablanca Joy × Phalaenopsis taida Pinlong; assay: as above; format: in vivo; settings: room temperature
Protocol: as §1

C=C1C[C@]23C[C@@]1(O)CC[C@H]2[C@@]12C=C[C@H](O)[C@@](C)(C(=O)O1)[C@H]2[C@@H]3C(=O)O [NM + GA3, Gibberellic Acid] gave a flowering rate (Phalaenopsis amabilis) of 75% and a flowering rate [1] of 71%.
